This is an account of results in patent US4278762A, “Method for the quantitative determination of plasminogen activators” (Pentapharm AG, priority 1976, dated 1981).

What all share (type): biochemical
One test concerns the target T1, bovine trypsin (Bos taurus, UniProt P00760).
T1 sequence (P00760 24-246): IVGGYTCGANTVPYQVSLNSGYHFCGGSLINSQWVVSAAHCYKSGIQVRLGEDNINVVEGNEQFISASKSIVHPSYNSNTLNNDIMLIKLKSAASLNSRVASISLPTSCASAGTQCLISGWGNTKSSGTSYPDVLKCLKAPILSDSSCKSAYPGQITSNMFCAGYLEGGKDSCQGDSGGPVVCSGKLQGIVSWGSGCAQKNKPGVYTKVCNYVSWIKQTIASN
As to the kind of experiment: Activity of bovine trypsin at constant substrate and enzyme concentrations (Table IV). The following applies: substrate concentration 2 × 10^-4 M; pH 8.4, ionic strength 0.30, 37° C., 405 nm. How it is done: The results listed in Table IV were obtained under the following experimental conditions: In a measuring vessel 1.7 ml of tris-imidazole buffer having a pH of 8.4 and an ionic strength of 0.30 were mixed at 37° C. with 0.1 ml of an aqueous trypsin solution having a concentration of 2 NF units of trypsin per ml. To the mixture 0.2 ml of a 2×10^-3 molar solution of the substrate to be tested was added. Thereafter, the quantity of p-nitroaniline released from the substrate by the action of the trypsin was determined by measuring the change in the optical density Δ OD per minute at a wave length of 405 nm.

In the next test the test system is kallikrein. Kind of test: Hydrolysis of tripeptide-p-nitroanilides by kallikrein.
Another test deals with T2, urokinase (Homo sapiens, UniProt P00749).
T2 construct: also urine of healthy test persons
As to the kind of experiment: Amidolytic splitting by urokinase and other plasminogen activators.

The target in another test is T3, trypsin (Bos taurus, UniProt P00760).
T3 construct: b360 concerns trypsin in duodenal juice
T3 sequence (P00760 24-246): T1 sequence (P00760 24-246)
As to the kind of experiment: Kinetic constants Km and vmax of substrate hydrolysis by trypsin (Lineweaver-Burk). The following applies: per NF unit. As to the method:
The enzyme and the substrate are mixed in a buffer solution, and the hydrolysis reaction is followed for 2 to 30 minutes. The concentration of substate [S] is varied, whereas the enzyme concentration is kept constant. If the extinction (OD=optical density) is plotted in a co-ordinate system as a function of time, a curve is obtained the tangent of which at time zero corresponds to the ideal course of the hydrolysis. By means of this tangent the initial rate of the hydrolysis can be determined.
If 1/v is plotted against (1/[S]), a Lineweaver-Burk diagram (cf. "Kurzes Lehrbuch der Biochemie" by P. KARLSON, Georg Thieme-Verlag, Stuttgart, 1967, p. 70) is obtained from which vmax and Km can be determined graphically.
For the determination of the kinetic constants Km and vmax listed in Table I aqueous dilution series of the substrates with concentrations from 0.1 to 2 μmoles/ml were used. […] The value of the quantity of p-nitroaniline formed per minute is a measure for the rate of hydrolysis at a given substrate concentration. […] The kinetic constants Km and vmax were determined from the points of intersection of the curves with the abscissa and the ordinate.

Where a name gives a salt, the structure may show the parent alone. Non-standard residues stand in square brackets, D forms with d. Residues, ends and D or L forms follow the SMILES beside them. *: point of attachment. Hydrocinnamoyl = O=C(CCc1ccccc1)*; dChg = N[C@@H](C(=O)O)C1CCCCC1; pNA = O=[N+]([O-])c1ccc(N*)cc1; Chg = N[C@H](C(=O)O)C1CCCCC1; Cbz = O=C(OCc1ccccc1)*; PhAc = O=C(Cc1ccccc1)*; Bz = O=C(c1ccccc1)*

Regarding `N=C(N)NCCCC(NC(=O)c1ccccc1)C(=O)Nc1ccc([N+](=O)[O-])cc1` (racemic) [N^α --Bz--DL--Arg--pNA . HCl, reference compound], the “Quantity in nanomoles of p-nitroaniline enzymatically released from the substrate by 1 NF unit of trypsin in 1 minute” value on bovine trypsin is reported as 0,45 nanomoles.
Consider `N=C(N)NCCC[C@H](NC(=O)[C@H](Cc1ccccc1)NC(=O)[C@@H]1CCCN1)C(=O)Nc1ccc([N+](=O)[O-])cc1` [A] (H-Pro-Phe-Arg-pNA), for which the “hydrolysis by kallikrein (in words)” value in the test with kallikrein is “hydrolyzed by kallikrein”.
Take `CC(C)[C@H](N)C(=O)NCC(=O)N[C@@H](CCCNC(=N)N)C(=O)Nc1ccc([N+](=O)[O-])cc1` [B] (H-Val-Gly-Arg-pNA): the “hydrolysis by kallikrein (in words)” value with kallikrein is reported as “not split by kallikrein at all”. Besides, the “splitting by urokinase and other plasminogen activators (in words)” value at urokinase is listed as “rapidly amidolytically split by urokinase”.
Consider `CC(C)[C@H](NC(=O)[C@H](Cc1ccccc1)NC(=O)c1ccccc1)C(=O)N[C@@H](CCCNC(=N)N)C(=O)Nc1ccc([N+](=O)[O-])cc1` [N^α --Bz--Phe--Val--Arg--pNA . HCl, reference compound] (Bz-Phe-Val-Arg-pNA), for which the “Quantity in nanomoles of p-nitroaniline enzymatically released from the substrate by 1 NF unit of trypsin in 1 minute” value at bovine trypsin is on record as 8,4 nanomoles.
For the compound `CC(C)[C@H](N)C(=O)NCC(=O)N[C@@H](CCCNC(=N)N)C(=O)Nc1ccc([N+](=O)[O-])cc1` [Substrate II, H-Val-Gly-Arg-pNA.2HCl] (H-Val-Gly-Arg-pNA), at bovine trypsin, the “Quantity in nanomoles of p-nitroaniline enzymatically released from the substrate by 1 NF unit of trypsin in 1 minute” value is 10,8 nanomoles.
Still for that read-out and setting: as for `CC[C@H](C)[C@H](NC(=O)c1ccccc1)C(=O)NCC(=O)N[C@@H](CCCNC(=N)N)C(=O)Nc1ccc([N+](=O)[O-])cc1` [Substrate III, N^α -Bz-Ile-Gly-Arg-pNA.HCl] (Bz-Ile-Gly-Arg-pNA), the figure is 28.5 nmol.
Same read-out and setting: the value for `CC(C)C[C@H](NC(=O)c1ccccc1)C(=O)NCC(=O)N[C@@H](CCCNC(=N)N)C(=O)Nc1ccc([N+](=O)[O-])cc1` [Substrate IV, N^α -Bz-Leu-Gly-Arg-pNA.HCl] (Bz-Leu-Gly-Arg-pNA) was 19.2 nmol; that for `CC(C)[C@H](NC(=O)Cc1ccccc1)C(=O)NCC(=O)N[C@@H](CCCNC(=N)N)C(=O)Nc1ccc([N+](=O)[O-])cc1` [Substrate IX, N^α -2-Phenylacetyl-Val-Gly-Arg-pNA.HCl] (PhAc-Val-Gly-Arg-pNA) was 17.5 nmol; that for `CC(C)[C@H](NC(=O)c1ccccc1)C(=O)N[C@@H](CO)C(=O)N[C@@H](CCCNC(=N)N)C(=O)Nc1ccc([N+](=O)[O-])cc1` [Substrate V, N^α -Bz-Val-Ser-Arg-pNA.HCl] was 15.9 nmol.
For `CC[C@H](C)[C@H](NC(=O)c1ccccc1)C(=O)N[C@@H](CO)C(=O)N[C@@H](CCCNC(=N)N)C(=O)Nc1ccc([N+](=O)[O-])cc1` [Substrate VI, N^α -Bz-Ile-Ser-Arg-pNA.HCl] (Bz-Ile-Ser-Arg-pNA), the “Quantity in nanomoles of p-nitroaniline enzymatically released from the substrate by 1 NF unit of trypsin in 1 minute” value on bovine trypsin was determined as 19.1 nmol.
The same measure, in the same setting: the value for `CC(C)C[C@H](NC(=O)c1ccccc1)C(=O)N[C@@H](CO)C(=O)N[C@@H](CCCNC(=N)N)C(=O)Nc1ccc([N+](=O)[O-])cc1` [Substrate VII, N^α -Bz-Leu-Ser-Arg-pNA.HCl] (Bz-Leu-Ser-Arg-pNA) was 25.7 nmol; that for `CC(C)[C@H](NC(=O)CCc1ccccc1)C(=O)NCC(=O)N[C@@H](CCCNC(=N)N)C(=O)Nc1ccc([N+](=O)[O-])cc1` [Substrate VIII, N^α -3-Phenylpropionyl-Val-Gly-Arg-pNA.HCl] (Hydrocinnamoyl-Val-Gly-Arg-pNA) was 14.2 nmol.
Consider `N=C(N)NCCC[C@H](NC(=O)CNC(=O)[C@H](N)C1CCCCC1)C(=O)Nc1ccc([N+](=O)[O-])cc1` [XIII] (H-[dChg]-Gly-Arg-pNA), for which the “Quantity in nanomoles of p-nitroaniline enzymatically released from the substrate by 1 NF unit of trypsin in 1 minute” value at bovine trypsin worked out at 28.8 nmol.
Same read-out and setting: as for `N=C(N)NCCC[C@H](NC(=O)CNC(=O)[C@@H](NC(=O)c1ccccc1)C1CCCCC1)C(=O)Nc1ccc([N+](=O)[O-])cc1` [XII] (Bz-[Chg]-Gly-Arg-pNA), the figure is 37.9 nmol; as for `N=C(N)NCCC[C@H](NC(=O)CNC(=O)[C@H](NC(=O)c1ccccc1)C1CCCCC1)C(=O)Nc1ccc([N+](=O)[O-])cc1` [XIV] (Bz-[dChg]-Gly-Arg-pNA), 41.9 nmol; as for `N=C(N)NCCC[C@H](NC(=O)CNC(=O)[C@@H](N)C1CCCCC1)C(=O)Nc1ccc([N+](=O)[O-])cc1` [XI] (H-[Chg]-Gly-Arg-pNA), 20.0 nmol.
In the case of `CC(C)[C@@H](N)C(=O)NCC(=O)N[C@@H](CCCNC(=N)N)C(=O)Nc1ccc([N+](=O)[O-])cc1` [XVI] (H-[dV]-Gly-Arg-pNA), the “Quantity in nanomoles of p-nitroaniline enzymatically released from the substrate by 1 NF unit of trypsin in 1 minute” value at bovine trypsin worked out at 33.3 nmol. Further, at trypsin, the Vmax is given as 4.17 × 10^-3 μmole/min. NF.
On to `CC(C)[C@H](NC(=O)OCc1ccccc1)C(=O)NCC(=O)N[C@@H](CCCNC(=N)N)C(=O)Nc1ccc([N+](=O)[O-])cc1` [XV] (Cbz-Val-Gly-Arg-pNA), for which the “Quantity in nanomoles of p-nitroaniline enzymatically released from the substrate by 1 NF unit of trypsin in 1 minute” value at bovine trypsin worked out at 41.3 nmol.
The same measure, in the same setting: as for `N=C(N)NCCC[C@H](NC(=O)CNC(=O)[C@@H](NC(=O)OCc1ccccc1)C1CCCCC1)C(=O)Nc1ccc([N+](=O)[O-])cc1` [X] (Cbz-[Chg]-Gly-Arg-pNA), the figure is 46.7 nmol.
